Laboratory results taken from patent US6383773B2, “Penicillin conversion” (Massachusetts Institute of Technology, priority 1998, dated 2002).

Tests used:
[1] = tested on: resting S. clavuligerus NP1 cells; assay: Penicillin G ring expansion by resting cells grown on alcohol (Example 3); format: cell-based
[2] = tested on: growing S. clavuligerus NP1 cells; assay: Conversion of penicillin G into DAOG by growing cells (Example 2); format: cell-based
Description: Media: Seed culture was prepared using 250 ml baffled flasks containing 40 ml MST medium (90 mM MOPS, 3% Trypticase Soy Broth without Dextrose, 1% soluble starch) adjusted to pH 7.0 before autoclaving. Fermentation was carried out in the same medium or in the defined medium described by Mahro and Demain (1987) containing, per liter, 5 g MOPS; 3.5 g K2 HPO4; 1 ml trace solution containing 1 mg FeSO4.7H2O, 1 mg, MnCl2.4H2O, 1 mg ZnSO4.H2O and 1 mg CaCl2; 2 g L-asparagine; 0.6 g MgSO4.7H2O; 10 g glycerol; initial pH 7.0.
Culture Conditions: For the seed culture, each flask was inoculated with 50 μl of a spore suspension (prepared and stored in 20% glycerol at −80° C.) and incubated at 30° C. for 48 h. Fermentation were conducted in 250 ml baffled flasks containing 30 ml of medium at 30° C. at 250 rpm. Fermentations were started by transferring 1.5 ml of unwashed mycelium from the seed culture and their duration was 5 days. Once a day, samples were taken for pH, biomass and antibiotic analyses. Growth was measured as dry cell weight.
Bioassay: Cephalosporin type antibiotic(s) were detected by bioassay using Escherichia coli Ess seeded in LB (1% Tryptone, 0.5% NaCl, 0.5% Yeast Extract, 0.1% Glucose) 0.8% agar medium in the presence of penicillinase (Difco Laboratories, Detroit, Mich.). This is a narrow spectrum β-lactamase that destroys all kinds of penicillins but not cephalosporins. Assays were conducted with filter paper discs saturated with 100 μl of standard (deacetoxycephalosporin G) or supernatants from the fermentation flask. The diameters of zones of growth inhibition were measured after overnight incubation at 37° C.

C. acremonium expandase = molecular target: T1, C. acremonium expandase (Hapsidospora chrysogena, UniProt P11935); conditions: cited from earlier work
T1 sequence (P11935 1-332): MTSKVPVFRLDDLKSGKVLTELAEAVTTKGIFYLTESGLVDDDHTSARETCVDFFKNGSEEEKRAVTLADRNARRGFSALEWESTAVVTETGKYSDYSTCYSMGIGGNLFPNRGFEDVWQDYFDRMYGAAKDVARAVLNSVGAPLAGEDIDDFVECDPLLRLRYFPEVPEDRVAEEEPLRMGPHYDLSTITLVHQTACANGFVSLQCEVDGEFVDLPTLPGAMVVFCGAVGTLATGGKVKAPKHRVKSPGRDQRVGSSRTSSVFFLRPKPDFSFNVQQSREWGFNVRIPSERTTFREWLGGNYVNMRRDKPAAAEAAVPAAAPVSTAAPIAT

[3] = tested on: resting S. clavuligerus NP1 cells; assay: Penicillin G ring expansion by resting cells grown on alcohol (Example 3); format: cell-based; conditions: 3 hours of reaction, 5.6 mM penicillin G; for Cephalosporin Production Specific: per mg DCW
Description: Microorganisms, Media, and Culture Conditions: All experiments were done using S. clavuligerus NP1. Seed cultures were developed using 250 ml baffled flasks containing 40 ml of MST medium: 1% soluble starch (Sigma Chemical Co., St. Louis, Mo.); 3% Trypticase Soy Broth Without Dextrose (BBL, Cockeysville, Md.); 90 mM MOPS buffer, pH adjusted to 7.0 before autoclaving. Each flask was inoculated with 50 μl of a spore suspension (stored in 20% glycerol at −80° C.) and incubated at 30° C., 250 rpm for 48 h.
From a seed culture, 4 ml were transferred to 500 ml baffled flasks containing 80 ml of MT medium (3% Trypticase Soy Broth Without Dextrose; 90 mM MOPS buffer, pH adjusted to 7.0 before autoclaving) with or without 1-2% ethanol or methanol. Alcohols were added just before inoculation. Cells were grown at 30° C., 250 rpm for 24 h. Mycelia from each flask were washed twice and, finally, resuspended in 10 ml of distilled water. Four ml of this cell suspension were used in the ring-expanding biotransformation.
Ring Expansion: The ring expansion mixture contained 1.8 mM FeSO4, 1.28 mM α-ketoglutarate, 4 ml cell suspension, 5.6 mM penicillin G and 50 mM MOPS (pH 6.5) in a final volume of 10 ml contained in 250 ml baffled Erlenmeyer flasks. Additions were made in the order established by Shen et al. (Shen et al., Enzyme Microb. Technol. 17:231-234, 1984). Incubation was at 220 rpm and 30° C. for 1 to 3 h. Samples were collected and centrifuged. Biotransformation activity was detected by paper disc-agar diffusion bioassay.
Detection of Expandase Activity: Expandase activity was detected by paper disc-agar diffusion bioassay. Two superimposed paper discs (¼ inch; Schleicher & Schuell, Keene, N.H.) were saturated with 100 μl of each supernatant or standard. After each application, the discs were allowed to dry for 30 min in a laminar hood and then placed on Petri plates containing 10 ml of LB (1% tryptone, 0.5% NaCl, 0.5% yeast extract, 0.1% glucose) 0.8% agar medium containing 50,000 IU/ml of penicillinase (Difco Bacto penase concentrate, Difco Laboratories, Detroit, Mich.) seeded with E. coli ESS (a β-lactam-supersensitive mutant). The plates were incubated overnight at 37° C. The penicillinase used is a narrow spectrum β-lactamase that destroys the substrate penicillin G but not cephalosporins. The diameters of zones of growth inhibition were measured and quantified with calibration curves using pure DAOG as standard.
Dry Cell Weight (DCW) Assay: Two samples of 1 ml were taken from each cell suspension prepared in distilled water (10 ml), centrifuged (14,000×g, 10 min) and dried to constant weight at 65° C. The weights listed are those in the reaction mixture.

[4] = MST supplemented with 50 μg penicillin G/ml, after 72 hours of incubation
[5] = defined medium, 50 μg/ml penicillin G, after 48 hours
[6] = defined medium, 100 μg/ml penicillin G, after 48 hours
[7] = cells grown in MT + 1% E (ethanol)
[8] = cells grown in MT + 1% M (methanol)
[9] = cells grown in MT + 2% E (ethanol)
[10] = cells grown in MT + 2% M (methanol)

CC1(C)S[C@@H]2[C@H](NC(=O)Cc3ccccc3)C(=O)N2[C@H]1C(=O)O [Penicillin G, penicillin G]
penicillin G expansion ([1]; cells grown in MST medium with addition of an alcohol): completely inhibited
Cephalosporin Production Volumetric ([1]; cells grown in MST, 3 hours of reaction, 5.6 mM penicillin G): 5.8 µg/mL
Cephalosporin Production Specific ([1]; cells grown in MST, 3 hours of reaction, 5.6 mM penicillin G, per mg DCW): 1.0 µg/mg
cephalosporin produced [2, 4]: 10.5 μg cephalosporin/ml
conversion [2, 4]: approximately 21%
conversion ([2]; MST supplemented with 100 μg penicillin G/ml, after 96 hours): the same level of conversion
cephalosporin produced [2, 5]: 4.55 μg cephalosporin/ml
conversion rate [2, 5]: 9.1%
cephalosporin produced [2, 6]: 10.5 μg cephalosporin/ml
conversion rate [2, 6]: 10.5%
substrate for expandase activity (C. acremonium expandase; crude extracts (Kohsaka et al. 1976; Demain et al.)): not
ring expansion (C. acremonium expandase; partially purified enzyme (Kupka et al. 1983)): does not expand
Cephalosporin Production Volumetric [3, 7]: 12.3 µg/mL
Cephalosporin Production Specific [3, 7]: 3.6 µg/mg
Cephalosporin Production Volumetric [3, 8]: 5.2 µg/mL
Cephalosporin Production Specific [3, 8]: 1.7 µg/mg
Cephalosporin Production Volumetric [3, 9]: 6.3 µg/mL
Cephalosporin Production Specific [3, 9]: 7.0 µg/mg
Cephalosporin Production Volumetric [3, 10]: 4.3 µg/mL
Cephalosporin Production Specific [3, 10]: 1.5 µg/mg
Cephalosporin Production Volumetric ([3]; cells grown in MT): 5.3 µg/mL
Cephalosporin Production Specific ([3]; cells grown in MT): 1.5 µg/mg
